Assay results taken from patent publication US11371025B2, “Non-covalent loading of plant picovirus particles” (CASE WESTERN RESERVE UNIVERSITY, priority 2013, dated 2022).
pIC50: −log10 of the molar value. Where a name gives a salt, the structure may show the parent alone. Each block holds one molecule with its values, some of them ahead of it.

What was measured:
HeLa cells [1] = test: XTT cell viability assay, HeLa; type: cell-based, human; details: drug concentration, 24 h exposure, washed, further 24 h
HT-29 cells = test: XTT cell viability assay, HT-29; type: cell-based; details: Homo sapiens, drug concentration, 24 h exposure, washed, further 24 h
PC-3 cells = test: XTT cell viability assay, PC-3; type: cell-based; details: Homo sapiens, drug concentration, 24 h exposure, washed, further 24 h
HeLa cells [2] = details: 0.2 μM DAPI, 60 min incubation
Procedure: Cells were fixed and stained with WGA-A488 (Invitrogen) as described above. […] Confocal images were captured and analyzed as described above.
For delivery studies, the DAPI concentration was five magnitudes lower measuring only 0.2 μM DAPI.

pIC50 (HeLa cells [1]; Homo sapiens): 5.54 to 5.74
pIC50 (HT-29 cells): 5.21
pIC50 (PC-3 cells): 5.21
Molecule: Nc1ccc2cc3ccc(N)cc3nc2c1 [proflavine, 3,6-diaminoacridine hydrochloride]

Molecule: N.N.[Cl][Pt][Cl] [CDDP, cis-dichlorodiammine platinum(II)]
pIC50 (HeLa cells [1]): 4.68 to 4.92

Molecule: 4′,6-diamidino-2-phenylindole [DAPI]
fluorescent signals from the nuclei (HeLa cells [2]): do not show any apparent fluorescent signals
